# Experiments:
# Assay in all cases: KINOMEscan competition binding
# Conditions in all cases: compound 10.0 µM
# RPS6KA1 KD2 (human) = RPS6KA1 KD2 (human) (UniProt Q15418)
# CAMKK2 (human) = CAMKK2 (human) (UniProt Q96RR4)
# HIPK1 (human) = HIPK1 (human) (UniProt Q86Z02)
# ULK2 (human) = ULK2 (human) (UniProt Q8IYT8)
# RPS6KA4 KD2 (human) = RPS6KA4 KD2 (human) (UniProt O75676)
# RIOK2 (human) = RIOK2 (human) (UniProt Q9BVS4)
# CLK2 (human) = CLK2 (human) (UniProt P49760)
# CSNK2A1 (human) = CSNK2A1 (human) (UniProt P68400)
# [1] = tested on: EGFR (human), P00533 [G719S]
# NEK2 (human) = NEK2 (human) (UniProt P51955)
# MAP2K3 (human) = MAP2K3 (human) (UniProt P46734)
# MYLK (human) = MYLK (human) (UniProt Q15746)
# CDK7 (human) = CDK7 (human) (UniProt P50613)
# Chain of CDK7 (human) (P50613 whole entry, looked up): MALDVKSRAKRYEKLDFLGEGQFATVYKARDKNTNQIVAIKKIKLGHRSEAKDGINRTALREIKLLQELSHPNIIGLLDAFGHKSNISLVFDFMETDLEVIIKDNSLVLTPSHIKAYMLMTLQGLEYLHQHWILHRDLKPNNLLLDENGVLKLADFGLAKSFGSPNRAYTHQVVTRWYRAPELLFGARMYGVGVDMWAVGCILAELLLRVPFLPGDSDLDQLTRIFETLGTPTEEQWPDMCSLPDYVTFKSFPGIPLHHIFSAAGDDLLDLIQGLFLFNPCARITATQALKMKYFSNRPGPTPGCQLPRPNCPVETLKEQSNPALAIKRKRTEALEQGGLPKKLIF
# PRKD1 (human) = PRKD1 (human) (UniProt Q15139)
# CSNK1E (human) = CSNK1E (human) (UniProt P49674)
# PIK3CG (human) = PIK3CG (human) (UniProt P48736)
# RPS6KA5 KD2 (human) = RPS6KA5 KD2 (human) (UniProt O75582)
# MINK1 (human) = MINK1 (human) (UniProt Q8N4C8)
# GAK (human) = GAK (human) (UniProt O14976)
# CIT (human) = CIT (human) (UniProt O14578)
# Chain of CIT (human) (O14578 whole entry, looked up): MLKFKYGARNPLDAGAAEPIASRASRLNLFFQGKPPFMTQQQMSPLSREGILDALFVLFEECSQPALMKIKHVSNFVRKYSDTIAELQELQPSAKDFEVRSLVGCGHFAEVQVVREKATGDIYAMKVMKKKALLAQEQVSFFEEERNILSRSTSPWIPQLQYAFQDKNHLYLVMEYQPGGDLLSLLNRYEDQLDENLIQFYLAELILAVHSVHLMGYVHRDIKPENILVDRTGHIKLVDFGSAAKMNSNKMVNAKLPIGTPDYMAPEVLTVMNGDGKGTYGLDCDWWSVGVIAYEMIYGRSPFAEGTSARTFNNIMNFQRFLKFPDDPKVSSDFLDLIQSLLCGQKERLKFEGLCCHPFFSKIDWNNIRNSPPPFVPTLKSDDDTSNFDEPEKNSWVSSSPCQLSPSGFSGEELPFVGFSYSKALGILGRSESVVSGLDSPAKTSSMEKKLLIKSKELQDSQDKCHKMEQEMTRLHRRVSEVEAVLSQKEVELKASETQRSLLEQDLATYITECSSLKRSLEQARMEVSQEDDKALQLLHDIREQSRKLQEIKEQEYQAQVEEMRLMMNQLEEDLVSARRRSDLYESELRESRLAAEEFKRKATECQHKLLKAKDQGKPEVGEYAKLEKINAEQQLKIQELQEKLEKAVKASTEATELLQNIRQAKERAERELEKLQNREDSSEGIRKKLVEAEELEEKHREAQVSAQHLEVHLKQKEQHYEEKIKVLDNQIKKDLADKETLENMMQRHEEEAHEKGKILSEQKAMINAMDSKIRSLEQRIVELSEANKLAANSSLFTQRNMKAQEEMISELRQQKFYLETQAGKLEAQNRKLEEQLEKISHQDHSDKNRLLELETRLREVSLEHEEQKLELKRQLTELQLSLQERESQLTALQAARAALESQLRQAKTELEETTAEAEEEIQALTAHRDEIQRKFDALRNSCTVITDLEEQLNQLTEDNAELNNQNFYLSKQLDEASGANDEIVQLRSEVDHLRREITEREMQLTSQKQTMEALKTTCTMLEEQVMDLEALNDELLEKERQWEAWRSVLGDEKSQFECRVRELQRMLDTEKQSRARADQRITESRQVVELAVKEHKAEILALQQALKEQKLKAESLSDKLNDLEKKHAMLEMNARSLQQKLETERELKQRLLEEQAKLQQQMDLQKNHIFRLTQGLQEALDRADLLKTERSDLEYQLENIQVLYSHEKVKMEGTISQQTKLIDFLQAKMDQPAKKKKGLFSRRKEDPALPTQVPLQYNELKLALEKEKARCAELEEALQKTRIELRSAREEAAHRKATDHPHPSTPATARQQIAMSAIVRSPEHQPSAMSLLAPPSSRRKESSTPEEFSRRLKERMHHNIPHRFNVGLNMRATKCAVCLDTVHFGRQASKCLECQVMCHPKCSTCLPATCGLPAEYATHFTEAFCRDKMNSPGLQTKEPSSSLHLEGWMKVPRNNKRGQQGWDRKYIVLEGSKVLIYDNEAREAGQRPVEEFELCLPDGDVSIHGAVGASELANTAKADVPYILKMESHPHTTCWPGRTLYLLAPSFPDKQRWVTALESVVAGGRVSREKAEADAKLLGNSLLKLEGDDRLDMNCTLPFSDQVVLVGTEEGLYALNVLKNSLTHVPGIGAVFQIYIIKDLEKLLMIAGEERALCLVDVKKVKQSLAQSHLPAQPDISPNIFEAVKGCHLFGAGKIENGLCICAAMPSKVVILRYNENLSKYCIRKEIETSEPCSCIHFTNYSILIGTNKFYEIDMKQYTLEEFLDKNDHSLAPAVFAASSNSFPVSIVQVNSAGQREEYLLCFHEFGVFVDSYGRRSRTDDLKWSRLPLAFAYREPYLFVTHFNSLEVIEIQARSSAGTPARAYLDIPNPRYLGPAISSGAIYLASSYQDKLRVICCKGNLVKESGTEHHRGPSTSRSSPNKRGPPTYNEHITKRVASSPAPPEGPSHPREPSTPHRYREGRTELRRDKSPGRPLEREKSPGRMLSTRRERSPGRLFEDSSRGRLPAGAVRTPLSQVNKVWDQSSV
# MAPK15 (human) = MAPK15 (human) (UniProt Q8TD08)
# RIOK1 (human) = RIOK1 (human) (UniProt Q9BRS2)
# [2] = tested on: KIT (human), P10721 [V559D/T670I]
# Chain of KIT (human), P10721 [V559D/T670I] (P10721 whole entry V559D/T670I, looked up): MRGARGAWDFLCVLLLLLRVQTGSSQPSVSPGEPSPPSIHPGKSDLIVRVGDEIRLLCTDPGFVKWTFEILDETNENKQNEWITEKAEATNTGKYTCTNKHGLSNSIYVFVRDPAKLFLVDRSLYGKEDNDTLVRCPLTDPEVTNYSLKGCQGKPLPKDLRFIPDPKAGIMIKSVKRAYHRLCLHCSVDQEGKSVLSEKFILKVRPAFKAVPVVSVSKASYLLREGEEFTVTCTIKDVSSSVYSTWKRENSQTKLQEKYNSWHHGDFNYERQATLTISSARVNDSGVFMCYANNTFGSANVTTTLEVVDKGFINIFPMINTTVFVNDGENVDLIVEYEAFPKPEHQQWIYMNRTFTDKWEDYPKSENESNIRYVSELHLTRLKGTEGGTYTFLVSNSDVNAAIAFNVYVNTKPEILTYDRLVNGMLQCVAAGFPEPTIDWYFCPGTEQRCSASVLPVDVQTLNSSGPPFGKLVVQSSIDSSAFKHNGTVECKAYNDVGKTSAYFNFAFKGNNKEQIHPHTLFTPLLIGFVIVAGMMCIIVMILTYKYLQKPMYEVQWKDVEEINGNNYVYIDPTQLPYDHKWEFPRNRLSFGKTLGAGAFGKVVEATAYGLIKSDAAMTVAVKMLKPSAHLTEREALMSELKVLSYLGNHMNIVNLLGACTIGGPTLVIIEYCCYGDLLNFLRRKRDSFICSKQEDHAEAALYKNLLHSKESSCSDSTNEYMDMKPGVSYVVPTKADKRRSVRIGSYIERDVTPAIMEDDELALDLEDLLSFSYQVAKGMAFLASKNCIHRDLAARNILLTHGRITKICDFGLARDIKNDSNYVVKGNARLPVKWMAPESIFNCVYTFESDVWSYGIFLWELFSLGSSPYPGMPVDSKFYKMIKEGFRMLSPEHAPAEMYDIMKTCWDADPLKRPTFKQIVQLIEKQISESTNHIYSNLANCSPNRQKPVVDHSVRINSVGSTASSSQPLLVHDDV
# MKNK1 (human) = MKNK1 (human) (UniProt Q9BUB5)
# CLK3 (human) = CLK3 (human) (UniProt P49761)
# [3] = tested on: FLT3 (human), P36888 [K663Q]
# PIM1 (human) = PIM1 (human) (UniProt P11309)
# Chain of PIM1 (human) (P11309 whole entry, looked up): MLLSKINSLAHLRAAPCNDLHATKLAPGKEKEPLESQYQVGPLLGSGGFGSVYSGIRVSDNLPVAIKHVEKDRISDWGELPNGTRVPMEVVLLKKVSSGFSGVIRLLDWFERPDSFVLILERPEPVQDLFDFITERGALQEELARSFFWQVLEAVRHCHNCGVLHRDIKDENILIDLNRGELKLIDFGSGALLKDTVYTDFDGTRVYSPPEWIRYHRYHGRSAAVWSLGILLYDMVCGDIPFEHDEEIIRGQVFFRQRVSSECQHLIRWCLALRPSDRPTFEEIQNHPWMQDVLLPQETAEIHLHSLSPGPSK
# [4] = biological target: TYK2 JH2 pseudokinase (human) (UniProt P29597)
# RIPK4 (human) = RIPK4 (human) (UniProt P57078)
# [5] = biological target: JAK3 JH1 catalytic (human) (UniProt P52333)
# [6] = tested on: KIT (human), P10721 [D816V]
# Chain of KIT (human), P10721 [D816V] (P10721 whole entry D816V, looked up): as the sequence (P10721 whole entry V559D/T670I, looked up) above, with D559V, I670T, D816V counted along it
# DAPK1 (human) = DAPK1 (human) (UniProt P53355)
# DCLK3 (human) = DCLK3 (human) (UniProt Q9C098)
# Chain of DCLK3 (human) (Q9C098 whole entry, looked up): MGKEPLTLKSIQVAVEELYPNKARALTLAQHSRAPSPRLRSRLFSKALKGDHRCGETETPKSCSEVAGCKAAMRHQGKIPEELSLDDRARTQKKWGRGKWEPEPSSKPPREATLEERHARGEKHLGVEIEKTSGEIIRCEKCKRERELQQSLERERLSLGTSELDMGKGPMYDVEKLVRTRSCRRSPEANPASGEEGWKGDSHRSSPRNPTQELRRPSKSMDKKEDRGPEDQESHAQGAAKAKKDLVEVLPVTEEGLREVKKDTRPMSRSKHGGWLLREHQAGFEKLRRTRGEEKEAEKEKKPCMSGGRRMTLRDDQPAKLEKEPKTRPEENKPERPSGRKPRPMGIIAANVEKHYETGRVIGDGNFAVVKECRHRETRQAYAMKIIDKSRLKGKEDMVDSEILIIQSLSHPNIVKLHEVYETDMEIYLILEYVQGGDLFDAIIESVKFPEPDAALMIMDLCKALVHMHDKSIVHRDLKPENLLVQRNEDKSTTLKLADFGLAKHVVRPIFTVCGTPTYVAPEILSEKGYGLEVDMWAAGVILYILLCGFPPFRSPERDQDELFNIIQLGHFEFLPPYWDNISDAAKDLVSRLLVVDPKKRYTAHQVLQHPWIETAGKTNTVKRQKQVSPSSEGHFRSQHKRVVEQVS
# ACVR2A (human) = ACVR2A (human) (UniProt P27037)
# STK17B (human) = STK17B (human) (UniProt O94768)
# MAP3K7 (human) = MAP3K7 (human) (UniProt O43318)
# MKNK2 (human) = MKNK2 (human) (UniProt Q9HBH9)
# KIT (human) = KIT (human) (UniProt P10721)
# Chain of KIT (human) (P10721 whole entry, looked up): as the sequence (P10721 whole entry V559D/T670I, looked up) above, with D559V, I670T counted along it
# FLT3 (human) = FLT3 (human) (UniProt P36888)
# AURKC (human) = AURKC (human) (UniProt Q9UQB9)
# [7] = biological target: JAK1 JH2 pseudokinase (human) (UniProt P23458)
# CAMKK1 (human) = CAMKK1 (human) (UniProt Q8N5S9)
# Chain of CLK2 (human) (P49760 whole entry, looked up): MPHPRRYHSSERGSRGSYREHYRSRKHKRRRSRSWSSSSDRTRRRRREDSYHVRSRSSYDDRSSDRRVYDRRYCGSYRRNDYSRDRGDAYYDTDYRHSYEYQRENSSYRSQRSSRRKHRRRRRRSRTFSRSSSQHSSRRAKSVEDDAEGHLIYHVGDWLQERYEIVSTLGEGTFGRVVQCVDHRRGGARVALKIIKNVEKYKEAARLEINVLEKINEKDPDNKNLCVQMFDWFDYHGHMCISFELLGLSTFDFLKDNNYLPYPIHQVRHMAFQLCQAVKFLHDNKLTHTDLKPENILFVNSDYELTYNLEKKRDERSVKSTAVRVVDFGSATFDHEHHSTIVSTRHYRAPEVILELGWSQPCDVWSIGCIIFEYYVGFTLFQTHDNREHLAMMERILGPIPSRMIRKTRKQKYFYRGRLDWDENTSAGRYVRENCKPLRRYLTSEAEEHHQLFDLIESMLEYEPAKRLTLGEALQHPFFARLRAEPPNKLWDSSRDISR
smiles,measurement,setting,value
CN1C(=O)c2ccccc2N(C)c2nc(Nc3ccc(N4CCC(O)CC4)cc3)ncc21,"kinase still bound, per cent of control",RPS6KA1 KD2 (human),45%
same,"kinase still bound, per cent of control",CAMKK2 (human),55%
same,"kinase still bound, per cent of control",HIPK1 (human),95%
same,"kinase still bound, per cent of control",ULK2 (human),6.2%
same,"kinase still bound, per cent of control",RPS6KA4 KD2 (human),89%
same,"kinase still bound, per cent of control",RIOK2 (human),63%
same,"kinase still bound, per cent of control",CLK2 (human),100%
same,"kinase still bound, per cent of control",CSNK2A1 (human),86%
same,"kinase still bound, per cent of control",[1],100%
same,"kinase still bound, per cent of control",NEK2 (human),100%
same,"kinase still bound, per cent of control",MAP2K3 (human),84%
same,"kinase still bound, per cent of control",MYLK (human),63%
same,"kinase still bound, per cent of control",CDK7 (human),60%
same,"kinase still bound, per cent of control",PRKD1 (human),98%
same,"kinase still bound, per cent of control",CSNK1E (human),100%
same,"kinase still bound, per cent of control",PIK3CG (human),4.2%
same,"kinase still bound, per cent of control",RPS6KA5 KD2 (human),100%
same,"kinase still bound, per cent of control",MINK1 (human),100%
same,"kinase still bound, per cent of control",GAK (human),37%
same,"kinase still bound, per cent of control",CIT (human),95%
same,"kinase still bound, per cent of control",MAPK15 (human),100%
same,"kinase still bound, per cent of control",RIOK1 (human),90%
same,"kinase still bound, per cent of control",[2],73%
same,"kinase still bound, per cent of control",MKNK1 (human),28%
same,"kinase still bound, per cent of control",CLK3 (human),97%
same,"kinase still bound, per cent of control",[3],85%
same,"kinase still bound, per cent of control",PIM1 (human),91%
same,"kinase still bound, per cent of control",[4],71%
same,"kinase still bound, per cent of control",RIPK4 (human),61%
same,"kinase still bound, per cent of control",[5],93%
same,"kinase still bound, per cent of control",[6],69%
same,"kinase still bound, per cent of control",DAPK1 (human),98%
same,"kinase still bound, per cent of control",DCLK3 (human),68%
same,"kinase still bound, per cent of control",ACVR2A (human),90%
same,"kinase still bound, per cent of control",STK17B (human),79%
same,"kinase still bound, per cent of control",MAP3K7 (human),58%
same,"kinase still bound, per cent of control",MKNK2 (human),8.4%
same,"kinase still bound, per cent of control",KIT (human),66%
same,"kinase still bound, per cent of control",FLT3 (human),100%
same,"kinase still bound, per cent of control",AURKC (human),22%
same,"kinase still bound, per cent of control",[7],4.8%
same,"kinase still bound, per cent of control",CAMKK1 (human),98%
COc1cc(N2CCN(C)CC2)ccc1Nc1ncc2c(n1)N(C)c1sccc1C(=O)N2C,"kinase still bound, per cent of control",RPS6KA1 KD2 (human),24%
same,"kinase still bound, per cent of control",CAMKK2 (human),34%
same,"kinase still bound, per cent of control",HIPK1 (human),67%
same,"kinase still bound, per cent of control",ULK2 (human),1.2%
same,"kinase still bound, per cent of control",RPS6KA4 KD2 (human),13%
same,"kinase still bound, per cent of control",RIOK2 (human),100%
same,"kinase still bound, per cent of control",CLK2 (human),78%
same,"kinase still bound, per cent of control",CSNK2A1 (human),82%
same,"kinase still bound, per cent of control",[1],72%
same,"kinase still bound, per cent of control",NEK2 (human),83%
same,"kinase still bound, per cent of control",MAP2K3 (human),39%
same,"kinase still bound, per cent of control",MYLK (human),17%
same,"kinase still bound, per cent of control",CDK7 (human),67%
same,"kinase still bound, per cent of control",PRKD1 (human),12%
same,"kinase still bound, per cent of control",CSNK1E (human),91%
same,"kinase still bound, per cent of control",PIK3CG (human),73%
same,"kinase still bound, per cent of control",RPS6KA5 KD2 (human),57%
same,"kinase still bound, per cent of control",MINK1 (human),46%
same,"kinase still bound, per cent of control",GAK (human),24%
same,"kinase still bound, per cent of control",CIT (human),85%
same,"kinase still bound, per cent of control",MAPK15 (human),87%
same,"kinase still bound, per cent of control",RIOK1 (human),71%
same,"kinase still bound, per cent of control",[2],82%
same,"kinase still bound, per cent of control",MKNK1 (human),77%
same,"kinase still bound, per cent of control",CLK3 (human),93%
same,"kinase still bound, per cent of control",[3],93%
same,"kinase still bound, per cent of control",PIM1 (human),66%
same,"kinase still bound, per cent of control",[4],43%
same,"kinase still bound, per cent of control",RIPK4 (human),95%
same,"kinase still bound, per cent of control",[5],100%
same,"kinase still bound, per cent of control",[6],100%
same,"kinase still bound, per cent of control",DAPK1 (human),58%
same,"kinase still bound, per cent of control",DCLK3 (human),18%
same,"kinase still bound, per cent of control",ACVR2A (human),100%
same,"kinase still bound, per cent of control",STK17B (human),100%
same,"kinase still bound, per cent of control",MAP3K7 (human),81%
same,"kinase still bound, per cent of control",MKNK2 (human),24%
same,"kinase still bound, per cent of control",KIT (human),66%
same,"kinase still bound, per cent of control",FLT3 (human),99%
same,"kinase still bound, per cent of control",AURKC (human),82%
same,"kinase still bound, per cent of control",[7],78%
same,"kinase still bound, per cent of control",CAMKK1 (human),57%

# Source: the kinase profiling compilation of Christmann-Franck et al. (2016)
